Assay results taken from PMC12503906, “Novel Pyrazolo [1,5‐a]−1,3,5‐Triazine Derivatives as CDK7 Inhibitors: Synthesis and Biological Insights in Pancreatic Ductal Adenocarcinoma Models” (Chemmedchem, 2025).
Like-named read-outs stand apart in the source and are kept apart here.

Tests used:
PDAC3 [1] = assay: SRB chemosensitivity assay, primary PDAC3 cells; format: cell-based
Procedure: (§1) Three lines of immortalized PDAC cells were selected as representative phenotypes: mesenchymal (PATU‐T), quasimesenchymal (PANC‐1), and an epithelial clone of SUIT 2 cells (SUIT 2.28). Cells were cultured in noncoated T‐75 and T‐25 flasks under adherent conditions, using 1× DMEM (Gibco, 41,966,029) for PATU‐T and RPMI (Gibco, 21,875,034) for SUIT 2.28 and PANC‐1, both supplemented with 10% NBCS and 1% P/S. Additional employed models were the PDAC3 cells, a primary cell culture, the PSCs, which were immortalized healthy pancreatic cells, and the PATU‐T‐GR, which was a gemcitabine resistant model of PATU‐T. PDAC3 and PSCs were cultivated using complete RPMI medium, while PATU‐T‐GR required complete DMEM medium. For seeding, cells were detached with Trypsin‐EDTA (0.05%) (GibcoTM, 25,300–096) and were consequently counted using the Automated Cell Counter (Luna‐II, Westburg). Cells were then plated on 96‐ or 6‐well plates depending on the planned experiment.
(§2) The Sulforhodamine B (SRB) chemosensitivity assay was used to measure cytotoxicity and cell proliferation post drug treatment. At day 0, 3–6 × 10^3 cells were seeded in a 96‐well plate, depending on the cell line. At day 1, cells were attached and ready to be treated. For the calculation of the IC50, drug dilutions for the compounds 1b, 1c, 1d, 1e, 1g, 1hr, 1i, 1j, and LDC4297 (MedChemExpress, HY‐12,653) were prepared in dilution trays and eight different concentrations were included. These were added in triplicates to the cells, which were then incubated for […] at 37 °C in 5% CO2. During day 1, the control plate was fixed with 50% Trichloroacetic acid (TCA), as intended to be the baseline plate used for the normalization of the data. 72 h post‐treatment, the cells were fixed with TCA, and placed at 4 °C for about 2 h. The plates were then washed with distillated water and left to dry under the hood with ventilation. Subsequently, plates were stained with 0.4% SRB for 15 min and washed with 1% acetic acid to remove excess stain. Once dried again, the protein‐bound SRB was dissolved in 10 mM TRIS, and the plates were placed on a shaker for 10 min per plate. Lastly, the absorbance was measured at 492 nm with a spectrophotometer (Synergy HT, BioTek). The absorbance data obtained were normalized to the day 1 control, and the percentage of cell growth in relation to the control was calculated using the following formula. (1) %Cell growth=Mean OD treatment−Mean OD day0/Mean OD control−Mean OD day0×100
The percentage of proliferation and their respective standard deviations were used to perform statistical analysis in GraphPad Prism software v 10 (GraphPad Software, San Diego, CA). Data were normalized to the day 0 control and to their own untreated 72 h control. These were transformed into logarithmic data, and log(inhibitor) versus response analysis was performed for obtaining the IC50 values per cell lines. Each experiment was conducted in triplicates.

PSC = assay: SRB chemosensitivity assay, pancreatic stellate cells (PSC); format: cell-based; conditions: Fibroblast, read-out: IC50 PSC
Procedure: as §1
as §2, with “The plates were then washed with distillated water and left to dry under the hood with ventilation. Subsequently, plates were stained with 0.4% SRB for 15 min and washed with 1% acetic acid to remove excess stain. Once dried again, the protein‐bound SRB was dissolved in 10 mM TRIS, and the plates were placed on a shaker for 10 min per plate.” left out, “(1) %Cell growth=Mean OD treatment−Mean OD day0/Mean OD control−Mean OD day0×100” left out

SUIT 2.28 = assay: Cell cycle analysis (FACS, PI staining), SUIT 2.28; format: cell-based; conditions: for percentage of cells in the G0‐G1 phase: untreated 24.6%; for percentage of cells in the G2‐M phase: untreated 32.7%; for percentage of cells in the S phase: untreated 42.7%
Procedure: (§3) Modulation of the cell cycle was analyzed via flow cytometry. Cells (5 × 10^5 cells mL^− ^1) were seeded in 6‐well plates and were incubated at 37 °C overnight. Cells were treated with the compounds 1b and 1g at two different concentrations (1 × IC50 and 4 × IC50, according to each cell line) and were again incubated for 24 and 72 h. After treatment, cells were harvested with trypsin and were collected in specific fluorescence‐activated cell sorting (FACS) tubes. Cells were then washed with PBS and centrifuged at 1500 rpm for 5 min, in order to form a pellet. These pellets were fixed in 1 mL of ice‐cold 70% ethanol, added drop by drop during vortex, and placed in the refrigerator at 4 °C. After overnight incubation, the cells were washed twice with PBS, centrifuged (5 min at 1500 rpm), resuspended in 50 µL of RNase (100 µg mL^− ^1), and incubated for 30 min at 37 °C. Finally, 200 µL of propidium iodide solution (PI, 50 µg mL^− ^1) was added, and the cell distribution in the various phases of the cell cycle was analyzed via BD LSRFortessa Cell Analyzer. Data analysis was carried out with FACSdiva software (Becton Dickinson), while cell cycle distribution was determined using FCS express software.

PATU‐T = assay: Cell cycle analysis (FACS, PI staining), PATU‐T; format: cell-based; conditions: for percentage of cells in the G2‐M phase: untreated 18.4%; for percentage of cells in the S phase: untreated 32.5%; for percentage of cells in the G0‐G1 phase: untreated 49.1%
Procedure: as §3

PDAC3 [2] = assay: Cell cycle analysis (FACS, PI staining), PDAC3; format: cell-based; conditions: for percentage of cells in the G2‐M phase: untreated 13.3%; for percentage of cells in the G0‐G1 phase: untreated 50.0%; for percentage of cells in the S phase: untreated 36.7%
Procedure: as §3

PDAC3 [3] = assay: Wound healing assay, PDAC3; format: cell-based; conditions: PDAC3, up to 24 h
Procedure: The wound healing assay was used to test the migratory ability of the selected cells post‐treatment. Cells (5 × 10^4 /well) were seeded on 96‐well. After 24 h, cells reached the optimal 100% confluency, and an artificial wound was created with a 96‐well Pintool Scratcher. The cells were immediately washed with complete medium, in order to remove cell debris after the scratch, and images of the wells were captured at time 0 h, right before the addition of the treatment. Each drug (1b and 1g) was previously diluted in the respective medium at two different concentrations: 1 × IC50 and 4 × IC50 (according to the cell specific IC50 value) and were then added to the cells. Images were then taken at timepoints 4, 8, 20, and 24 h using the Leica microscope with a JAI TMC‐137 camera to assess wound closure. The images were analyzed using the Universal Grab 6.3 software (DCILabs), and the obtained data were used to determine the percentage of migration of the cells, using the following formula. (2) % Migration=Mean width of the wound atT=0−Mean width of the wound atT=X/Mean width of the wound atT=0×100

CDK7 = CDK7 (Homo sapiens, UniProt P50613); assay: In vitro CDK7 enzyme inhibition assay (ADP‐Glo); format: biochemical; parameters: purchased Promega Corporation VA7402
CDK7, sequence (P50613 whole entry): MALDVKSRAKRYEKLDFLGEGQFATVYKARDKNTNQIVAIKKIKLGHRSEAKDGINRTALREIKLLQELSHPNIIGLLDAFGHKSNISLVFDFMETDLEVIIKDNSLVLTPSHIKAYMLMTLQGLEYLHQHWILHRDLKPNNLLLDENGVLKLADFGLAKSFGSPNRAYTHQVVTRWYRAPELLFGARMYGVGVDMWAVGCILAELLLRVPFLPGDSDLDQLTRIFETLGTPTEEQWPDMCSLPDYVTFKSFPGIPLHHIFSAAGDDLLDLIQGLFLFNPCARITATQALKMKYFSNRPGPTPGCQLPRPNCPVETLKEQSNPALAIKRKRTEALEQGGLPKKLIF
CDK7, sequence (P51946 whole entry partner): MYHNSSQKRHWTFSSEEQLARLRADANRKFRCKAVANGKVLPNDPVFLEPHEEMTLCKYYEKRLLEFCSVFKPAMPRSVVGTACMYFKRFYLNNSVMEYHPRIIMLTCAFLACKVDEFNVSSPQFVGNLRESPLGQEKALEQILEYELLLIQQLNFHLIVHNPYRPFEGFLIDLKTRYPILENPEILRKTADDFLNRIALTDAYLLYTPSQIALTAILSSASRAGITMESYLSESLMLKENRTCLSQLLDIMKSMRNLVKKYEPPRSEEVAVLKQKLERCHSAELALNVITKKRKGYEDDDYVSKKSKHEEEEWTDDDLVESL
CDK7, sequence (P51948 whole entry partner): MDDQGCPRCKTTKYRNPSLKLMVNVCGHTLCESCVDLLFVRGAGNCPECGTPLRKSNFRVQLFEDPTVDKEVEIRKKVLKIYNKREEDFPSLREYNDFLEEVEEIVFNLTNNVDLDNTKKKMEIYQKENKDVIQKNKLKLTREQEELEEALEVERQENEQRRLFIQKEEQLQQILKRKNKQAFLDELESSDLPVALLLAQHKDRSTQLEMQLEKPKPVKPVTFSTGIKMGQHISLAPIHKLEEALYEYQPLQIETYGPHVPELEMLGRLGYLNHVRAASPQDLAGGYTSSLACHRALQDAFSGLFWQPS
Procedure: The CDK7 enzyme inhibition assay was conducted using the ADP‐Glo Kinase Assay (VA7402, Promega Corporation, Madison, WI, USA) according to the manufacturer's instructions. In this assay, CDK7 catalyzes the conversion of ATP to ADP. The reaction was terminated by adding the ADP‐Glo reagent, which depletes residual ATP. Subsequently, the kinase detection reagent was introduced to convert ADP back into ATP, which was then measured via a luciferase reaction, producing luminescence. The assay was carried out at room temperature, using DMSO as the solvent for the tested compounds. Each compound was tested at eight different concentrations. […] Luminescence was recorded using a BioTek plate reader (BioTek Instruments Inc.), as previously described.^[ [39] ^] The percentage of enzyme inhibition was determined for each compound at different concentrations, and mean IC50 values of triplicate experiments were calculated using GraphPad Prism.

| SMILES | percentage of cells in the G0‐G1 phase (SUIT 2.28; SUIT 2.28, 1 × IC50, 24 h) | percentage of cells in the G2‐M phase (SUIT 2.28; SUIT 2.28, 1 × IC50, 24 h) | percentage of cells in the S phase (SUIT 2.28; SUIT 2.28, 1 × IC50, 24 h) | percentage of cells in the G0‐G1 phase (SUIT 2.28; SUIT 2.28, 4 × IC50, 24 h) | percentage of cells in the G2‐M phase (SUIT 2.28; SUIT 2.28, 4 × IC50, 24 h) | percentage of cells in the S phase (SUIT 2.28; SUIT 2.28, 4 × IC50, 24 h) | percentage of cells in the G2‐M phase (PATU‐T; 1 × IC50, 24 h) | percentage of cells in the S phase (PATU‐T; 1 × IC50, 24 h) | percentage of cells in the G0‐G1 phase (PATU‐T; 1 × IC50, 24 h) | percentage of cells in the G2‐M phase (PATU‐T; 4 × IC50, 24 h) | percentage of cells in the S phase (PATU‐T; 4 × IC50, 24 h) | percentage of cells in the G0‐G1 phase (PATU‐T; 4 × IC50, 24 h) | percentage of cells in the G2‐M phase (PDAC3 [2]; PDAC3, 1 × IC50, 24 h) | percentage of cells in the G0‐G1 phase (PDAC3 [2]; PDAC3, 1 × IC50, 24 h) | percentage of cells in the G2‐M phase (PDAC3 [2]; PDAC3, 4 × IC50, 24 h) | percentage of cells in the S phase (PDAC3 [2]; PDAC3, 4 × IC50, 24 h) | percentage of cells in the G0‐G1 phase (PDAC3 [2]; PDAC3, 4 × IC50, 24 h) | inhibition of cell migration (PDAC3 [3]) | also measured |
| --- | --- | --- | --- | --- | --- | --- | --- | --- | --- | --- | --- | --- | --- | --- | --- | --- | --- | --- | --- |
| Nc1ncnc2cc(-c3c[nH]c4ccc(Br)cc34)nn12 [Compound 1b, 7‐(5‐Bromo‐1H‐indol‐3‐yl)pyrazolo[1,5‐a][1,3,5]triazin‐4‐amine] | 41.0% | 18.7% | 40.3% | 41.6% | 21.6% | 34.9% | 14.9% | 49.6% | 35.5% | 10.1% | 60.0% | 30.0% | 11.1% | 44.0% | 6.9% | 51.6% | 41.6% | significant migration inhibition only at the 24‐hour time point | IC50 (PDAC3 [1]; PDAC-3, SRB, primary cell line, average ± SEM, triplicate, read-out: IC50 PDAC3): 1.27 µM; IC50 (PDAC3 [1]; SRB, primary cell line, average ± SEM, triplicate, read-out: IC50 PDAC3): 1.3 ± 0.2 µM; IC50 (PSC; SRB, nontumorous immortalized pancreatic fibroblasts, average ± SEM, triplicate): 6.6 ± 0.7 µM; IC50 (CDK7; ADP‐Glo assay, mean of triplicate experiments, read-out: CDK7 inhibition activity IC50): 0.025 µM |
| Cn1cc(-c2cc3ncnc(N)n3n2)c2cc(Br)ccc21 [Compound 1g, 7‐(5‐Bromo‐1‐methyl‐1H‐indol‐3‐yl)pyrazolo[1,5‐a][1,3,5]triazin‐4‐amine] | 36.2% | 25.9% | 37.8% | 40.3% | 25.4% | 34.2% | 17.7% | 35.0% | 47.4% | 15.2% | 39.0% | 45.7% | 13.3% | 55.9% | 9.8% | 30.4% | 59.8% | significant migration inhibition only at the 24‐hour time point | IC50 (PDAC3 [1]; PDAC-3, read-out: IC50 PDAC3, SRB, primary cell line, average ± SEM, triplicate): 0.684 µM; IC50 (PDAC3 [1]; read-out: IC50 PDAC3, SRB, primary cell line, average ± SEM, triplicate): 0.7 ± 0.1 µM; IC50 (PSC): 5.3 ± 1.1 µM; percentage of cells in the S phase (PDAC3 [2]; PDAC3, 1 × IC50, 24 h): 30.8%; IC50 (CDK7): 0.028 µM |
